In brackets after ≈: the same amount, converted by molar mass. Where two headings read alike, the source gives them in different places.
Columns and labels:
Pythium ultimum (PYU) = assay: In-vitro plant fungicide test; assay type: cell-based; conditions: Globisporangium ultimum; for inhibition of growth at 0.2 ppm: .2 ppm; for inhibition of growth at 0.4 ppm: .4 ppm; for inhibition of growth at 0.8 ppm: .8 ppm
[1] = tested on: Cochliobolus sativus (HEL); assay: In-vitro plant fungicide test; assay type: cell-based; conditions: Bipolaris sorokiniana; for inhibition of growth at 0.2 ppm: .2 ppm; for inhibition of growth at 0.4 ppm: .4 ppm; for inhibition of growth at 0.8 ppm: .8 ppm
7 FUNGI = assay: Microbicides broad spectrum secondary test against 7 fungi (Table V); assay type: cell-based; design: key: 1= no growth; 0= growth of the indicated fungi at dose indicated in ppm; conditions: Mycophile agar, pH 5.0; for ANIG growth: Aspergillus niger; for APUL growth: Aureobasidium pullulans; for CRES growth: Cladosporium resinae; for GTRA growth: Gloeophyllum trabeum; for PFUN growth: Penicillium funiculosum; for RRUB growth: Rhodotorula rubra; for SSER growth: Sacharomyces cerevisiae
Method: In the case of fungi, the spores are harvested by pipetting water onto the slant and dislodging the spores with a sterile loop. The cell/spore suspension is standardized by controlling incubation time, temperature, and the volume of the diluent. The suspension is then used to inoculate the vessels containing the broth compound. […] The results of the minimum inhibitory concentration (MIC) tests of compounds of this invention are shown in Tables IIIa IIIb, IIIc, V, VI, VII, and VIII against the microorganisms shown in Table IX. [table]

CER = assay: In-vitro plant fungicide test; assay type: cell-based; conditions: Table IVb, read-out: % Control at (ppm) indicated CER; for inhibition of growth at 0.2 ppm: .2 ppm; for inhibition of growth at 0.4 ppm: .4 ppm; for inhibition of growth at 0.8 ppm: .8 ppm
COL = assay: In-vitro plant fungicide test; assay type: cell-based; conditions: Table IVb, read-out: % Control at (ppm) indicated COL; for inhibition of growth at 0.2 ppm: .2 ppm; for inhibition of growth at 0.4 ppm: .4 ppm; for inhibition of growth at 0.8 ppm: .8 ppm
Botrytis cinerea (BOC) = assay: In-vitro plant fungicide test; assay type: cell-based; conditions: Botrytis cinerea; for inhibition of growth at 0.2 ppm: .2 ppm; for inhibition of growth at 0.4 ppm: .4 ppm; for inhibition of growth at 0.8 ppm: .8 ppm
MON = assay: In-vitro plant fungicide test; assay type: cell-based; conditions: Table IVb, read-out: % Control at (ppm) indicated MON; for inhibition of growth at 0.2 ppm: .2 ppm; for inhibition of growth at 0.4 ppm: .4 ppm; for inhibition of growth at 0.8 ppm: .8 ppm
[2] = tested on: Pseudomonas fluorescens (PSFL); assay: Minimum inhibitory concentration (MIC), broth two-fold serial dilution test; conditions: Pseudomonas fluorescens, IIIB, read-out: MIC (G-) PSFL, trypticase soy broth (complex media); Table IIIb
Source text: When the test is ready to be done, each vessel in the dilution series, except the first vessel, contains an equal volume of compound free broth. The first vessel contains twice the volume of broth with the starting concentration of test compound. One half of the broth from the first vessel is transferred to the second vessel. After being mixed, one half the resulting volume is removed from the second vessel and transferred to the third vessel. The entire cycle is repeated sufficiently to give a series of concentrations amounting to 500, 250, 125, 63, 31, 16, 8, and 4 ppm (or 100, 50, 25, 12.5, 6.2, 3.1, 1.6, and 0.8), respectively.
Each vessel is then inoculated with a cell suspension of the appropriate test organism. Bacteria are grown in broth, fungi on agar slants for a time and at a temperature appropriate to the species being tested, and algae are a mixture of green algae and blue-green bacteria grown in a nutrient media. At the end of the growth period, in the case of bacteria, the broth is vortexed to disperse the cells.
The vessels are then incubated at the appropriate temperature. After the incubation, the vessels are examined for growth/no growth.

Escherichia coli (ECOL) = assay: as above; conditions: Escherichia coli, IIIB, read-out: MIC (G-) ECOL, trypticase soy broth (complex media); Table IIIb
[3] = Table IVb, read-out: % Control at (ppm) indicated PYU
[4] = Table IVa, read-out: % Control at 25 ppm PYU
[5] = Table IVb, read-out: % Control at (ppm) indicated HEL
[6] = Table IVa, *=Phytotoxic, read-out: % Control at 25 ppm HEL
[7] = Table IVb, read-out: % Control at (ppm) indicated BOC
[8] = Table IVa, *=Phytotoxic, read-out: % Control at 25 ppm BOC

Molecule `CC(C)(C)OC(=O)NCC(=O)OCC#CI` [Compound 1, N-t-butoxycarbonylglycine iodopropargyl ester] has an inhibition of growth at 1.5 ppm (Pythium ultimum (PYU); [3]) of 100%, an inhibition of growth at 6 ppm (Pythium ultimum (PYU); [3]) of 100% and an inhibition of growth at 25 ppm (Pythium ultimum (PYU); [4]) of 100%. It also gave an inhibition of growth at 25 ppm (Pythium ultimum (PYU); [3]) of 100%, an inhibition of growth at 0.2 ppm (Pythium ultimum (PYU); [3]) of 0% and an inhibition of growth at 0.4 ppm (Pythium ultimum (PYU); [3]) of 0%. The inhibition of growth at 0.8 ppm (Pythium ultimum (PYU); [3]) was 0%, the inhibition of growth at 1.5 ppm [1, 5] was 0% and the inhibition of growth at 6 ppm [1, 5] was 75%. For the same molecule, the inhibition of growth at 25 ppm [1, 6] was 100%, the inhibition of growth at 25 ppm [1, 5] was 100% and the inhibition of growth at 0.2 ppm [1, 5] was 0%. It also gave an inhibition of growth at 0.4 ppm [1, 5] of 0%, an inhibition of growth at 0.8 ppm [1, 5] of 0% and an ANIG growth (7 FUNGI; 0.2 PPM) of 0. The ANIG growth (7 FUNGI; 1 PPM) was 0, the ANIG growth (7 FUNGI; 5 PPM) was 1 and the ANIG growth (7 FUNGI; 25 PPM) was 1. The APUL growth (7 FUNGI; 0.2 PPM) was 0, the APUL growth (7 FUNGI; 1 PPM) was 0 and the APUL growth (7 FUNGI; 5 PPM) was 0. It also gave an APUL growth (7 FUNGI; 25 PPM) of 1, a CRES growth (7 FUNGI; 0.2 PPM) of 0 and a CRES growth (7 FUNGI; 1 PPM) of 0. For the same molecule, the CRES growth (7 FUNGI; 5 PPM) was 0, the CRES growth (7 FUNGI; 25 PPM) was 1 and the GTRA growth (7 FUNGI; 0.2 PPM) was 0. It also gave a GTRA growth (7 FUNGI; 1 PPM) of 1, a GTRA growth (7 FUNGI; 5 PPM) of 1 and a GTRA growth (7 FUNGI; 25 PPM) of 1. The PFUN growth (7 FUNGI; 0.2 PPM) was 0, the PFUN growth (7 FUNGI; 1 PPM) was 0 and the PFUN growth (7 FUNGI; 5 PPM) was 0. For the same molecule, the PFUN growth (7 FUNGI; 25 PPM) was 1, the RRUB growth (7 FUNGI; 0.2 PPM) was 0 and the RRUB growth (7 FUNGI; 1 PPM) was 0. The RRUB growth (7 FUNGI; 5 PPM) was 0, the RRUB growth (7 FUNGI; 25 PPM) was 1 and the SSER growth (7 FUNGI; 0.2 PPM) was 0. It also gave an SSER growth (7 FUNGI; 1 PPM) of 0, an SSER growth (7 FUNGI; 5 PPM) of 0 and an SSER growth (7 FUNGI; 25 PPM) of 1. For the same molecule, the inhibition of growth at 1.5 ppm (CER) was 0%, the inhibition of growth at 6 ppm (CER; 6 ppm) was 100% and the inhibition of growth at 25 ppm (CER) was 100%. It also gave an inhibition of growth at 0.2 ppm (CER) of 0%, an inhibition of growth at 0.4 ppm (CER) of 0% and an inhibition of growth at 0.8 ppm (CER) of 0%. It also gave an inhibition of growth at 1.5 ppm (COL) of 0%, an inhibition of growth at 3 ppm (COL) of 0% and an inhibition of growth at 6 ppm (COL) of 0%. It also gave an inhibition of growth at 12 ppm (COL) of 95%, an inhibition of growth at 25 ppm (COL) of 95% and an inhibition of growth at 0.2 ppm (COL) of 0%. For the same molecule, the inhibition of growth at 0.4 ppm (COL) was 0%, the inhibition of growth at 0.8 ppm (COL) was 0% and the inhibition of growth at 1.5 ppm (Botrytis cinerea (BOC); [7]) was 0%. It also gave an inhibition of growth at 6 ppm (Botrytis cinerea (BOC); [7]) of 0%, an inhibition of growth at 25 ppm (Botrytis cinerea (BOC); [8]) of 100% and an inhibition of growth at 25 ppm (Botrytis cinerea (BOC); [7]) of 100%. It also gave an inhibition of growth at 0.2 ppm (Botrytis cinerea (BOC); [7]) of 0%, an inhibition of growth at 0.4 ppm (Botrytis cinerea (BOC); [7]) of 0% and an inhibition of growth at 0.8 ppm (Botrytis cinerea (BOC); [7]) of 0%. For the same molecule, the inhibition of growth at 1.5 ppm (MON) was 75%, the inhibition of growth at 6 ppm (MON) was 100% and the inhibition of growth at 25 ppm (MON) was 100%. It also gave an inhibition of growth at 0.2 ppm (MON) of 0%, an inhibition of growth at 0.4 ppm (MON) of 0% and an inhibition of growth at 0.8 ppm (MON) of 0%.

For `O=C(CNC(=O)c1ccccc1)OCC#CI` [Compound 29, N-benzoylglycine iodopropargyl ester], the inhibition of growth at 25 ppm (Pythium ultimum (PYU); [4]) was 100%, the inhibition of growth at 25 ppm [1, 6] was 100% and the ANIG growth (7 FUNGI; 0.2 PPM) was 0. The ANIG growth (7 FUNGI; 1 PPM) was 0, the ANIG growth (7 FUNGI; 5 PPM) was 1 and the ANIG growth (7 FUNGI; 25 PPM) was 1. For the same molecule, the APUL growth (7 FUNGI; 0.2 PPM) was 0, the APUL growth (7 FUNGI; 1 PPM) was 0 and the APUL growth (7 FUNGI; 5 PPM) was 1. The APUL growth (7 FUNGI; 25 PPM) was 1, the CRES growth (7 FUNGI; 0.2 PPM) was 0 and the CRES growth (7 FUNGI; 1 PPM) was 0. For the same molecule, the CRES growth (7 FUNGI; 5 PPM) was 1, the CRES growth (7 FUNGI; 25 PPM) was 1 and the GTRA growth (7 FUNGI; 0.2 PPM) was 1. For the same molecule, the GTRA growth (7 FUNGI; 1 PPM) was 1, the GTRA growth (7 FUNGI; 5 PPM) was 1 and the GTRA growth (7 FUNGI; 25 PPM) was 1. It also gave a PFUN growth (7 FUNGI; 0.2 PPM) of 0, a PFUN growth (7 FUNGI; 1 PPM) of 0 and a PFUN growth (7 FUNGI; 5 PPM) of 1. It also gave a PFUN growth (7 FUNGI; 25 PPM) of 1, an RRUB growth (7 FUNGI; 0.2 PPM) of 0 and an RRUB growth (7 FUNGI; 1 PPM) of 0. It also gave an RRUB growth (7 FUNGI; 5 PPM) of 1, an RRUB growth (7 FUNGI; 25 PPM) of 1 and an SSER growth (7 FUNGI; 0.2 PPM) of 0. The SSER growth (7 FUNGI; 1 PPM) was 0, the SSER growth (7 FUNGI; 5 PPM) was 1 and the SSER growth (7 FUNGI; 25 PPM) was 1. For the same molecule, the MIC [2] was 32 µg/mL (≈ 93.3 µM), the MIC (Escherichia coli (ECOL)) was 125 µg/mL (≈ 364 µM) and the inhibition of growth at 25 ppm (Botrytis cinerea (BOC); [8]) was 100%.

For `O=C(CN1C(=O)c2ccccc2C1=O)OCC#CI` [Compound 30, N-phthaloylglycine iodopropargyl ester], the inhibition of growth at 1.5 ppm (Pythium ultimum (PYU); [3]) was 100%, the inhibition of growth at 6 ppm (Pythium ultimum (PYU); [3]) was 100% and the inhibition of growth at 25 ppm (Pythium ultimum (PYU); [4]) was 100%. It also gave an inhibition of growth at 25 ppm (Pythium ultimum (PYU); [3]) of 100%, an inhibition of growth at 0.2 ppm (Pythium ultimum (PYU); [3]) of 100% and an inhibition of growth at 0.4 ppm (Pythium ultimum (PYU); [3]) of 100%. For the same molecule, the inhibition of growth at 0.8 ppm (Pythium ultimum (PYU); [3]) was 100%, the inhibition of growth at 1.5 ppm [1, 5] was 0% and the inhibition of growth at 6 ppm [1, 5] was 100%. For the same molecule, the inhibition of growth at 25 ppm [1, 6] was 100%, the inhibition of growth at 25 ppm [1, 5] was 100% and the inhibition of growth at 0.2 ppm [1, 5] was 0%. It also gave an inhibition of growth at 0.4 ppm [1, 5] of 0%, an inhibition of growth at 0.8 ppm [1, 5] of 0% and an inhibition of growth at 1.5 ppm (CER) of 0%. It also gave an inhibition of growth at 25 ppm (CER) of 100%, an inhibition of growth at 0.2 ppm (CER) of 0% and an inhibition of growth at 0.4 ppm (CER) of 0%. The inhibition of growth at 0.8 ppm (CER) was 0%, the MIC [2] was > 250 µg/mL and the inhibition of growth at 1.5 ppm (COL) was 0%. For the same molecule, the inhibition of growth at 3 ppm (COL) was 0%, the inhibition of growth at 6 ppm (COL) was 50% and the inhibition of growth at 12 ppm (COL) was 100%. For the same molecule, the inhibition of growth at 25 ppm (COL) was 100%, the inhibition of growth at 0.2 ppm (COL) was 0% and the inhibition of growth at 0.4 ppm (COL) was 0%. For the same molecule, the inhibition of growth at 0.8 ppm (COL) was 0%, the MIC (Escherichia coli (ECOL)) was > 250 µg/mL and the inhibition of growth at 1.5 ppm (Botrytis cinerea (BOC); [7]) was 0%. It also gave an inhibition of growth at 6 ppm (Botrytis cinerea (BOC); [7]) of 0%, an inhibition of growth at 25 ppm (Botrytis cinerea (BOC); [8]) of 100% and an inhibition of growth at 25 ppm (Botrytis cinerea (BOC); [7]) of 90%. It also gave an inhibition of growth at 0.2 ppm (Botrytis cinerea (BOC); [7]) of 0%, an inhibition of growth at 0.4 ppm (Botrytis cinerea (BOC); [7]) of 0% and an inhibition of growth at 0.8 ppm (Botrytis cinerea (BOC); [7]) of 0%. For the same molecule, the inhibition of growth at 1.5 ppm (MON) was 100%, the inhibition of growth at 6 ppm (MON) was 100% and the inhibition of growth at 25 ppm (MON) was 100%. For the same molecule, the inhibition of growth at 0.2 ppm (MON) was 100%, the inhibition of growth at 0.4 ppm (MON) was 100% and the inhibition of growth at 0.8 ppm (MON) was 100%.
